In patent US4044137A, “2-(Phenylthiopropyl)-5-aryl-1,2,3,4-tetrahydro-γ-carbolines” (Pfizer Inc., priority 1976, dated 1977):
Structures can show the parent of a compound that is named as a salt.

Test system: amphetamine-induced symptoms
Experiment: antagonism of amphetamine-induced symptoms (cage movement) in rats
Assay type: in vivo
Details: test compound i.p., 1 hr., d-amphetamine sulfate 5 mg./kg. i.p. given 1 hr. after compound, rated one hour after amphetamine
Description: The tranquilizing agents of the present invention are characterized by relief of such schizophrenic manifestations in humans as hallucinations, hostility, suspiciousness, emotional or social withdrawal, anxiety, agitation and tension. Standard procedures of detecting and comparing tranquilizing activity of compounds in this series and for which there is an excellent correlation with human efficacy is the antagonism of amphetamine-induced symptoms in rats test, as taught by A. Weissman, et al., J. Pharmacol. Exp. Ther., 151, 339 (1966) and by Quinton, et al., Nature, 200, 178 (1963).
The effects of the compounds of the present invention on prominent amphetamine-induced symptoms were studied in rats by a rating scale modeled after the one reported by Quinton and Halliwell and by Weissman. Groups of five rats were placed in a covered plastic cage measuring approximately 26 × 42 × 16 cm. After a brief period of acclimation in the cage, the rats in each group were treated intraperitoneally (i.p.) with the test compound. […] On the basis of dose-response data after amphetamine it was possible to determine the effective dose of the compound necessary to antagonize or block the characteristic amphetamine behavior of cage movement for fifty percent of the rats tested (ED50). […]

Compound	ED50 (effective dose to antagonize or block the characteristic amphetamine behavior of cage movement for fifty percent of the rats tested)
Fc1ccc(SCCCN2CCc3c(c4cc(F)ccc4n3-c3ccc(F)cc3)C2)cc1 [F F F 0, 8-Fluoro-5-(p-fluorophenyl)-2-[3-(p-fluorophenylthio)propyl]-1,2,3,4-tetrahydro-γ-carboline hydrochloride]	32 mg/kg
[O-][S+](CCCN1CCc2c(c3cc(F)ccc3n2-c2ccc(F)cc2)C1)c1ccc(F)cc1 (centres unmarked) [F F F 1, 8-fluoro-5-(p-fluorophenyl)-2-[3-(p-fluorophenylsulfinyl)propyl]-1,2,3,4-tetrahydro-γ-carboline hydrochloride]	10 mg/kg
